PubChem BioAssay (NCI)
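The compound was tested at five concentrations on cells cultured in 96-well plates, with a 48-hour exposure period. At the TGI there is no net growth.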

Key:
Test in all cases: NCI tumour cell line growth inhibition, 48 h
[1] = system: A498 renal
[2] = system: A549 NSCLC
[3] = system: CAKI-1 renal
[4] = system: CCRF-CEM leukemia
[5] = system: COLO 205 colon
[6] = system: DLD-1 colon
[7] = system: DMS 114 small cell lung
[8] = system: DMS 273 small cell lung
[9] = system: EKVX NSCLC
[10] = system: HCC-2998 colon
[11] = system: HCT-116 colon
[12] = system: HCT-15 colon
[13] = system: HL-60(TB) leukemia
[14] = system: HOP-18 NSCLC
[15] = system: HOP-62 NSCLC
[16] = system: HOP-92 NSCLC
[17] = system: HT29 colon
[18] = system: IGROV1 ovarian
[19] = system: K-562 leukemia
[20] = system: KM12 colon
[21] = system: KM20L2 colon
[22] = system: LOX IMVI melanoma
[23] = system: MALME-3M melanoma
[24] = system: MCF7 breast
[25] = system: MOLT-4 leukemia
[26] = system: NCI-H226 lung
[27] = system: NCI-H23 lung
[28] = system: NCI-H460 lung
[29] = system: NCI/ADR-RES ovarian
[30] = system: OVCAR-3 ovarian
[31] = system: OVCAR-4 ovarian
[32] = system: OVCAR-5 ovarian
[33] = system: OVCAR-8 ovarian
[34] = system: P388 leukemia
[35] = system: RPMI-8226 leukemia
[36] = system: RXF 393 renal
[37] = system: SF-268 CNS
[38] = system: SF-295 CNS
[39] = system: SF-539 CNS
[40] = system: SK-MEL-2 melanoma
[41] = system: SK-MEL-28 melanoma
[42] = system: SK-MEL-5 melanoma
[43] = system: SK-OV-3 ovarian
[44] = system: SN12C renal
[45] = system: SN12K1 renal
[46] = system: SNB-19 CNS
[47] = system: SNB-75 CNS
[48] = system: SNB-78 CNS
[49] = system: SW-620 colon
[50] = system: U251 CNS
[51] = system: UACC-257 melanoma
[52] = system: UACC-62 melanoma
[53] = system: UO-31 renal
[54] = system: XF 498 CNS

How did the TGI [1] turn out when `COc1ccc(OCC(C)(C)O)cc1` was run?
Its TGI is greater than 100 µM.

What about the TGI [2] of the same compound?
Its TGI is greater than 100 µM.

And the TGI [3]?
The TGI was greater than 100 µM.

What about the TGI [4] of the same compound?
The TGI was greater than 100 µM.

What about the TGI [5] of the same compound?
Its TGI is greater than 100 µM.

And the TGI [6]?
The TGI was greater than 100 µM.

And the TGI [7]?
Its TGI is greater than 100 µM.

What about the TGI [8] of the same compound?
Its TGI is greater than 100 µM.

And the TGI [9]?
The TGI was greater than 100 µM.

What about the TGI [10] of the same compound?
Its TGI is greater than 100 µM.

What about the TGI [11] of the same compound?
The TGI was greater than 100 µM.

And the TGI [12]?
Its TGI is greater than 100 µM.

And the TGI [13]?
Its TGI is greater than 100 µM.

And the TGI [14]?
The TGI was greater than 100 µM.

And the TGI [15]?
The TGI was greater than 100 µM.

And the TGI [16]?
The TGI was greater than 100 µM.

What about the TGI [17] of the same compound?
Its TGI is greater than 100 µM.

What about the TGI [18] of the same compound?
Its TGI is greater than 100 µM.

What about the TGI [19] of the same compound?
Its TGI is greater than 100 µM.

What about the TGI [20] of the same compound?
Its TGI is greater than 100 µM.

And the TGI [21]?
Its TGI is greater than 100 µM.

What about the TGI [22] of the same compound?
The TGI was greater than 100 µM.

What about the TGI [23] of the same compound?
The TGI was greater than 100 µM.

And the TGI [24]?
The TGI was greater than 84.1 µM.

And the TGI [25]?
Its TGI is greater than 100 µM.

And the TGI [26]?
The TGI was greater than 100 µM.

And the TGI [27]?
Its TGI is greater than 100 µM.

What about the TGI [28] of the same compound?
The TGI was greater than 100 µM.

And the TGI [29]?
The TGI was greater than 100 µM.

What about the TGI [30] of the same compound?
Its TGI is greater than 100 µM.

And the TGI [31]?
Its TGI is greater than 100 µM.

And the TGI [32]?
The TGI was greater than 100 µM.

What about the TGI [33] of the same compound?
Its TGI is greater than 100 µM.

What about the TGI [34] of the same compound?
The TGI was greater than 100 µM.

And the TGI [35]?
The TGI was greater than 100 µM.

And the TGI [36]?
Its TGI is greater than 100 µM.

What about the TGI [37] of the same compound?
The TGI was greater than 100 µM.

What about the TGI [38] of the same compound?
The TGI was greater than 100 µM.

What about the TGI [39] of the same compound?
Its TGI is greater than 100 µM.

What about the TGI [40] of the same compound?
The TGI was greater than 100 µM.

What about the TGI [41] of the same compound?
The TGI was greater than 100 µM.

And the TGI [42]?
Its TGI is greater than 100 µM.

And the TGI [43]?
Its TGI is greater than 100 µM.

What about the TGI [44] of the same compound?
The TGI was greater than 100 µM.

And the TGI [45]?
The TGI was greater than 100 µM.

And the TGI [46]?
The TGI was greater than 100 µM.

And the TGI [47]?
Its TGI is greater than 86.9 µM.

And the TGI [48]?
The TGI was greater than 100 µM.

And the TGI [49]?
The TGI was greater than 100 µM.

And the TGI [50]?
Its TGI is greater than 100 µM.

And the TGI [51]?
Its TGI is greater than 100 µM.

What about the TGI [52] of the same compound?
The TGI was greater than 100 µM.

And the TGI [53]?
The TGI was greater than 100 µM.

What about the TGI [54] of the same compound?
The TGI was greater than 100 µM.
